Converted amounts (≈) assume the structure as drawn. The source made the active and inactive calls. The rule behind the calls is not given here.
How the values were obtained:
[1] = molecular target: T1, Bromodomain-containing protein 2 (Homo sapiens, UniProt P25440); assay: Binding affinity to BRD2 in human HL60 cell nuclear extracts assessed as inhibition of protein binding to N-I-BET functionalised sepharose beads at 10 uM after 1 hr by coomassie staining-based chemoproteomic profiling; conditions: HL-60
Target sequence in this assay (P25440 whole entry, looked up): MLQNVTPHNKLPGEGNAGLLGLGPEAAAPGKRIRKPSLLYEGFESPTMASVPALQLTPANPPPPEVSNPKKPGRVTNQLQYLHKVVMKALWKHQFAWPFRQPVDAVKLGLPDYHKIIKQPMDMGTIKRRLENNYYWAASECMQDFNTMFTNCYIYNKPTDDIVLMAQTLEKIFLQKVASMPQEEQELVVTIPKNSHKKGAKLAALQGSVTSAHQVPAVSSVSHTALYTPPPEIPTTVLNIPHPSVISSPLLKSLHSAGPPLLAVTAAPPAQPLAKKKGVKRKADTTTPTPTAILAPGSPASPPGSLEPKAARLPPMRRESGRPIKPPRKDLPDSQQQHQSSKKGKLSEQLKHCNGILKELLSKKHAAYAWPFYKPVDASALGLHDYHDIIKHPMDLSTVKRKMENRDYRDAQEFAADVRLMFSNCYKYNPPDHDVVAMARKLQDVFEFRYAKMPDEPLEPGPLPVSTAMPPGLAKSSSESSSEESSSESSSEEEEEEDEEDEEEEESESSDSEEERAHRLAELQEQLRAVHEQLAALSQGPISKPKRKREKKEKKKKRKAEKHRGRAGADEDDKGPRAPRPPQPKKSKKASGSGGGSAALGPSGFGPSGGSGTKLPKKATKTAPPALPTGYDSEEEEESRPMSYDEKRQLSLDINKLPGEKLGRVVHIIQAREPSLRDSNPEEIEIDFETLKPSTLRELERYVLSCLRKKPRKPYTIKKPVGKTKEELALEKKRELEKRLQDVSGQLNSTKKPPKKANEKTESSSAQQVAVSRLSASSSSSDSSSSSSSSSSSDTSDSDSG

[2] = molecular target: T2, Bromodomain-containing protein 3 (Homo sapiens, UniProt Q15059); assay: Binding affinity to BRD3 in human HL60 cell nuclear extracts assessed as inhibition of protein binding to N-I-BET functionalised sepharose beads at 10 uM after 1 hr by coomassie staining-based staining-based chemoproteomic profiling; conditions: HL-60
Target sequence in this assay (Q15059 2-726 limits assumed): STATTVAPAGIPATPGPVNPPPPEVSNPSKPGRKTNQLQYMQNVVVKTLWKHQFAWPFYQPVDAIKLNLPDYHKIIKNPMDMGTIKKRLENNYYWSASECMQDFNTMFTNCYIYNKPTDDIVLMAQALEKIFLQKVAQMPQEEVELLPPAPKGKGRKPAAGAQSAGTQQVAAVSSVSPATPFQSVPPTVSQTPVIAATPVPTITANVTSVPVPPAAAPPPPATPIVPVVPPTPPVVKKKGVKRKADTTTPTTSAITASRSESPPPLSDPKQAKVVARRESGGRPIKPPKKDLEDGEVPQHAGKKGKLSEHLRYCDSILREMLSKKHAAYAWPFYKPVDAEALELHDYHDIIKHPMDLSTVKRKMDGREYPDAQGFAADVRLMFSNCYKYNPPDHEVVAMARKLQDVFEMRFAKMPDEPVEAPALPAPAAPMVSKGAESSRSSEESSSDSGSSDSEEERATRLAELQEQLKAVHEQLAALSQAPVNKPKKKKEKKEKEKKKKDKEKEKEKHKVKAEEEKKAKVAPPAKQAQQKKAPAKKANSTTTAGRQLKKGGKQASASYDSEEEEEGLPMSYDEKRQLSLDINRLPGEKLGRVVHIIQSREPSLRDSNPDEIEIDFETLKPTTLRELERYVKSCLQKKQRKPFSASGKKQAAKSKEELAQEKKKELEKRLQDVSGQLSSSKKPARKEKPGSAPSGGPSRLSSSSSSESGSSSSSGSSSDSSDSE

[3] = molecular target: T3, Bromodomain-containing protein 4 (Homo sapiens, UniProt O60885); assay: Binding affinity to BRD4 in human HL60 cell nuclear extracts assessed as inhibition of protein binding to N-I-BET functionalised sepharose beads at 10 uM after 1 hr by coomassie staining-based staining-based chemoproteomic profiling; conditions: HL-60
[4] = Solubility of the compound by chemiluminescent nitrogen detection method; type: physicochemical
[5] = Permeability of the compound in artificial membrane; type: physicochemical, cell membranes; conditions: PAMPA; read-out: permeability
[6] = molecular target: T3, Bromodomain-containing protein 4; assay: Inhibition of recombinant BRD4 bromodomain 1 (unknown origin) using histone H4 peptide as substrate incubated for 1 hr under dark condition by HTRF assay
[7] = molecular target: T4, Histone deacetylase 1 (Homo sapiens, UniProt Q13547)
T4 sequence (Q13547 whole entry): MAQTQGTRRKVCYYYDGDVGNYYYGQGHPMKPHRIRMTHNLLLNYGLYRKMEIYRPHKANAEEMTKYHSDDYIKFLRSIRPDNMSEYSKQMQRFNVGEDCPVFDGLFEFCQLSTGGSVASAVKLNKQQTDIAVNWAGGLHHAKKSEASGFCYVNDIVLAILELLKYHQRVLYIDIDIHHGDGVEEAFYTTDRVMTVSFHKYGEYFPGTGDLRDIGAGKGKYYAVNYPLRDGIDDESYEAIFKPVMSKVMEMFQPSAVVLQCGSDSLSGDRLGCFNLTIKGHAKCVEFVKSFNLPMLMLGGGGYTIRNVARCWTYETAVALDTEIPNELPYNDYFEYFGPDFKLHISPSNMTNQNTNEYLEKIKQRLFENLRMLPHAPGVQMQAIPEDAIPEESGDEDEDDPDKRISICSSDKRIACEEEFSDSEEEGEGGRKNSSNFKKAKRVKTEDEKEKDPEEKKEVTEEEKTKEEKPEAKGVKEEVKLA
Description: Inhibition of HDAC1 (unknown origin)

[8] = molecular target: T5, Protein deacetylase HDAC6 (Homo sapiens, UniProt Q9UBN7)
T5 sequence (Q9UBN7 whole entry): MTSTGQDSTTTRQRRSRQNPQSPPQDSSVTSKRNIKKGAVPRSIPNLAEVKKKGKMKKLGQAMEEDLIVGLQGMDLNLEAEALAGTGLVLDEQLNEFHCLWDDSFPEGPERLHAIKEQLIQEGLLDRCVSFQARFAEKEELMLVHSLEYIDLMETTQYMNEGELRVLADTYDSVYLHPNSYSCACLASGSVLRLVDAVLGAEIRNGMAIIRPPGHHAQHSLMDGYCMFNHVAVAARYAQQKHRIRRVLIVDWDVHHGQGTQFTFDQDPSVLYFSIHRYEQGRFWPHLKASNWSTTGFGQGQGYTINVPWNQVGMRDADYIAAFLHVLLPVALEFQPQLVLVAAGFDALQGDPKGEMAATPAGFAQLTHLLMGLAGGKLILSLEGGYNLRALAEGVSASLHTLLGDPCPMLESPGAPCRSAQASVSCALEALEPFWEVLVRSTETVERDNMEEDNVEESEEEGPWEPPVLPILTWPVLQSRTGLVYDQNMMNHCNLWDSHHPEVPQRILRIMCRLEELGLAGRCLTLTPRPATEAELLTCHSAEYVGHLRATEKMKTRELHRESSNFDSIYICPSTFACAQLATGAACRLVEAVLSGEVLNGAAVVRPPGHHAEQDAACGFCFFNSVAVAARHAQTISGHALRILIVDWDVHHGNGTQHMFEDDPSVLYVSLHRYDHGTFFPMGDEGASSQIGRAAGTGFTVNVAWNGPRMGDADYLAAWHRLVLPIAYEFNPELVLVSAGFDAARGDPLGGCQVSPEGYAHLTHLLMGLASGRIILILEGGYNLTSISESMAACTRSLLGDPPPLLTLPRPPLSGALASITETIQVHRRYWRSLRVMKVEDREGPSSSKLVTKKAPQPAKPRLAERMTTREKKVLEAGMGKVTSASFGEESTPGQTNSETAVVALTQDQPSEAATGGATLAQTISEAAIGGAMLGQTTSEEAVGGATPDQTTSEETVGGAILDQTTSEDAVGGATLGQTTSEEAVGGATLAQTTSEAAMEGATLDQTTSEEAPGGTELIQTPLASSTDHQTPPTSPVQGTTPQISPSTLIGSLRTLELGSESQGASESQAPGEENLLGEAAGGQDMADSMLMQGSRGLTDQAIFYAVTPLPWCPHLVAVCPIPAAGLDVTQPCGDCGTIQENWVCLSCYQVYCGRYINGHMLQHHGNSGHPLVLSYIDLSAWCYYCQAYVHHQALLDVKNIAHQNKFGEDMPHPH
Description: Inhibition of HDAC6 (unknown origin)

[9] = molecular target: Histone deacetylase 9 (Homo sapiens, UniProt Q9UKV0)
Histone deacetylase 9, sequence (Q9UKV0 whole entry): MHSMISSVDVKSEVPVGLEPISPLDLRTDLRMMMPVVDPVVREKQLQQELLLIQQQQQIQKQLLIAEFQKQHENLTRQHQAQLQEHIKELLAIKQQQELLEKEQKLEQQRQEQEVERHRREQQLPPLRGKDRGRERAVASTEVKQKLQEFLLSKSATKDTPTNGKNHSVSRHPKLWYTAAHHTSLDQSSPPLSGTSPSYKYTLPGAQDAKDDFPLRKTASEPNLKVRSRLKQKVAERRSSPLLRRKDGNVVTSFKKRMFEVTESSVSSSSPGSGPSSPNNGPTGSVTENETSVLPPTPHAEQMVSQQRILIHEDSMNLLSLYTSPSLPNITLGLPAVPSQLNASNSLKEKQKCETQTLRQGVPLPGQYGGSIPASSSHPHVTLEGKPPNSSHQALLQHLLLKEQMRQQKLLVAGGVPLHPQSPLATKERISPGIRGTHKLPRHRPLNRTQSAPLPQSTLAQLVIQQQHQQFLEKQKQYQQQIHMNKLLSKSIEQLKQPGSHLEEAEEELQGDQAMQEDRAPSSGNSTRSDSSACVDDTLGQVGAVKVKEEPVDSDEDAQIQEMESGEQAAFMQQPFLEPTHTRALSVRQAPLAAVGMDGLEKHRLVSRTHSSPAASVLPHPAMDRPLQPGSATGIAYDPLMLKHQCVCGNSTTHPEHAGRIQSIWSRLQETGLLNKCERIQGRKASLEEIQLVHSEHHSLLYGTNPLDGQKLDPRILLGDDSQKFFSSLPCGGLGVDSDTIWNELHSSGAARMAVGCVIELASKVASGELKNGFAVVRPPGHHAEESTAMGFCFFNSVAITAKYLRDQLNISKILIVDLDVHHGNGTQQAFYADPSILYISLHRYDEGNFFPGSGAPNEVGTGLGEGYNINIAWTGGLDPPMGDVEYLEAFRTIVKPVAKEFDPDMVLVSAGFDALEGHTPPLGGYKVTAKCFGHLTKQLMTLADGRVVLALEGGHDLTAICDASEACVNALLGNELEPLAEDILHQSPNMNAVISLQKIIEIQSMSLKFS
Description: Inhibition of HDAC9 (unknown origin)

[10] = test system: PBMC; assay: Antiinflammatory activity in human PBMC assessed as inhibition of LPS-stimulated IL-6 production incubated for 30 mins prior to LPS-challenge measured after overnight incubation; type: functional, cell-based
[11] = test system: PBMC; assay: Antiinflammatory activity in human PBMC assessed as inhibition of LPS-stimulated TNF-alpha production incubated for 30 mins prior to LPS-challenge measured after overnight incubation; type: functional, cell-based
[12] = cells; type: functional; conditions: Homo sapiens, 72 h
Description: Growth inhibition of human 11060 cells assessed as ATP level after 72 hrs by CellTiterGlo assay

[13] = test system: HL-60; assay: cells; type: functional, cell-based; conditions: Homo sapiens, HL-60, 72 h
Description: Growth inhibition of human HL60 cells assessed as ATP level after 72 hrs by CellTiterGlo assay

[14] = test system: MV4-11; assay: cells; type: functional, cell-based; conditions: Homo sapiens, MV4-11, 72 h
Description: Growth inhibition of human MV4-11 cells assessed as ATP level after 72 hrs by CellTiterGlo assay

[15] = molecular target: T3, Bromodomain-containing protein 4; assay: Inhibition of His6-tagged BRD4 (1 to 477) (unknown origin) by surface plasmon resonance analysis
[16] = molecular target: T3, Bromodomain-containing protein 4; assay: Inhibition of BRD4 bromodomain 2 (338 to 437) (unknown origin) by surface plasmon resonance analysis
[17] = molecular target: T1, Bromodomain-containing protein 2; assay: Binding affinity to BRD2 in human HL60 cell nuclear extracts assessed as inhibition of protein binding to N-I-BET functionalised sepharose beads after 1 hr by coomassie staining-based chemoproteomic competition binding assay; set-up: species or system HL-60; conditions: read-out: Kd(app)
Target sequence in this assay (P25440 whole entry): as the sequence (P25440 whole entry, looked up) above

[18] = molecular target: T2, Bromodomain-containing protein 3; assay: Binding affinity to BRD3 in human HL60 cell nuclear extracts assessed as inhibition of protein binding to N-I-BET functionalised sepharose beads after 1 hr by coomassie staining-based chemoproteomic competition binding assay; set-up: species or system HL-60; conditions: read-out: Kd(app)
[19] = molecular target: T3, Bromodomain-containing protein 4; assay: Binding affinity to BRD4 in human HL60 cell nuclear extracts assessed as inhibition of protein binding to N-I-BET functionalised sepharose beads after 1 hr by coomassie staining-based staining-based chemoproteomic competition assay; set-up: species or system HL-60; conditions: read-out: Kd(app)
[20] = species on record: Homo sapiens; assay: Inhibition of BET in human 11060 cells assessed as downregulation of c-Myc expression level at IC90 after 6 to 24 hrs by Western blotting analysis; type: cell-based
[21] = molecular target: T4, Histone deacetylase 1; remark: listed apart in the source
Description: Binding affinity to HDAC1 in human HL60 cell nuclear extracts assessed as inhibition of enzyme binding to N-SAHA functionalised sepharose beads after 1 hr by coomassie staining-based chemoproteomic competition binding assay

[22] = molecular target: Histone deacetylase 2 (Homo sapiens, UniProt Q92769)
Histone deacetylase 2, sequence (Q92769 whole entry): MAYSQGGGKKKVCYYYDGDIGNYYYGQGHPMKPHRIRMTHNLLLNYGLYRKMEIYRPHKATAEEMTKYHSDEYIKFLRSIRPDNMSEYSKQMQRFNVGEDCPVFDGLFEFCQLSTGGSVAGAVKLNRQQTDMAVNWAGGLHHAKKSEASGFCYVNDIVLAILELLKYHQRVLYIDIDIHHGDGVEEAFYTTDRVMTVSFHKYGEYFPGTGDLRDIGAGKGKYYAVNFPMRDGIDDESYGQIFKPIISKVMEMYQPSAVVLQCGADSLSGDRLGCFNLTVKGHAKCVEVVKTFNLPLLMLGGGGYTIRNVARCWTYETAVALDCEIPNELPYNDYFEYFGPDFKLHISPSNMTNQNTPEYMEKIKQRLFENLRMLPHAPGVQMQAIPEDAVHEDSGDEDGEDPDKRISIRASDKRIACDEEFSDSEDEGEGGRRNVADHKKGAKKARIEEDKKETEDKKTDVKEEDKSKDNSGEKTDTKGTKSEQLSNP
Description: Binding affinity to HDAC2 in human HL60 cell nuclear extracts assessed as inhibition of enzyme binding to N-SAHA functionalised sepharose beads after 1 hr by coomassie staining-based chemoproteomic competition binding assay

[23] = molecular target: Histone deacetylase 3 (Homo sapiens, UniProt O15379)
Histone deacetylase 3, sequence (O15379 whole entry): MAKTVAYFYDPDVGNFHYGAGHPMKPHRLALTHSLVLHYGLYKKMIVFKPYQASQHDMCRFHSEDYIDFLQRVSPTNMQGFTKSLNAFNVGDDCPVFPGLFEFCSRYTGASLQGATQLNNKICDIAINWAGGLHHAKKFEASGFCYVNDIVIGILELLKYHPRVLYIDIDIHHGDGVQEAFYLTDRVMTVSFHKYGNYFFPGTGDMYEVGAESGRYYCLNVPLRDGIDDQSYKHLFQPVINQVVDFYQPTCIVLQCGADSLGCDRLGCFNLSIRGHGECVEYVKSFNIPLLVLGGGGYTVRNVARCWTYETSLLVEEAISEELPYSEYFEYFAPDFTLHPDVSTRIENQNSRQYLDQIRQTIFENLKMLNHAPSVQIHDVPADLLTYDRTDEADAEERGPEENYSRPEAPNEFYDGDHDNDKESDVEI
Description: Binding affinity to HDAC3 in human HL60 cell nuclear extracts assessed as inhibition of enzyme binding to N-SAHA functionalised sepharose beads after 1 hr by coomassie staining-based chemoproteomic competition binding assay

[24] = molecular target: T5, Protein deacetylase HDAC6; remark: listed apart in the source
Description: Binding affinity to HDAC6 in human HL60 cell nuclear extracts assessed as inhibition of enzyme binding to N-SAHA functionalised sepharose beads after 1 hr by coomassie staining-based chemoproteomic competition binding assay

[25] = molecular target: T6, Histone deacetylase 8 (Homo sapiens, UniProt Q9BY41)
T6 sequence (Q9BY41 whole entry): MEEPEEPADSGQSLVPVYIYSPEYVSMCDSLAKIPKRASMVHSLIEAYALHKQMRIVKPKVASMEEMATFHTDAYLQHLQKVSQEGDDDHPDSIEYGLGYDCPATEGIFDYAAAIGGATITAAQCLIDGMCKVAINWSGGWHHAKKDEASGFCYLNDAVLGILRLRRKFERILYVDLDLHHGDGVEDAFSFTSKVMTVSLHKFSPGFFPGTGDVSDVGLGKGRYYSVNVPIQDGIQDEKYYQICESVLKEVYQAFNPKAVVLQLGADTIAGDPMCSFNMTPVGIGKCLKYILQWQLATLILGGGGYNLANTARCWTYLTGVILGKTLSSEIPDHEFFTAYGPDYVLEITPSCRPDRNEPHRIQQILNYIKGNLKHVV
Description: Binding affinity to HDAC8 in human HL60 cell nuclear extracts assessed as inhibition of enzyme binding to N-SAHA functionalised sepharose beads after 1 hr by coomassie staining-based chemoproteomic competition binding assay

[26] = molecular target: T7, Polyamine deacetylase HDAC10 (Homo sapiens, UniProt Q969S8)
T7 sequence (Q969S8 whole entry): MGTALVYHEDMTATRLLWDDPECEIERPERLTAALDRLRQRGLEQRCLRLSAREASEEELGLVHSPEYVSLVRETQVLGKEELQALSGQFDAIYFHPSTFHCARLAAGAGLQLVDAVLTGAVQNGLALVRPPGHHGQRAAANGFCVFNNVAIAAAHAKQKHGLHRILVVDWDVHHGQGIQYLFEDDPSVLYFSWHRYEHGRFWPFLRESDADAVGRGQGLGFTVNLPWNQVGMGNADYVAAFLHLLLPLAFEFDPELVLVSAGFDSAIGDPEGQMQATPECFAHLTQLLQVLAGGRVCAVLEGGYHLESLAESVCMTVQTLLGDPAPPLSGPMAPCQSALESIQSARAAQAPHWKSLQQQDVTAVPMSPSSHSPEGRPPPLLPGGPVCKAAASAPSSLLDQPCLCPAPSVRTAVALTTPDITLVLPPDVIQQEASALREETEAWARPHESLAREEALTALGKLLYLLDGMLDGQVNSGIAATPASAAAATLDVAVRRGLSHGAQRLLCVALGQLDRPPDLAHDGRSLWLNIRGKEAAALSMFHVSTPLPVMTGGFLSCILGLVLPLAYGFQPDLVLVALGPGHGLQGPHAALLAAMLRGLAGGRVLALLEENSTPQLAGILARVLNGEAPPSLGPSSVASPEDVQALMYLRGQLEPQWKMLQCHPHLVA
Description: Binding affinity to HDAC10 in human HL60 cell nuclear extracts assessed as inhibition of enzyme binding to N-SAHA functionalised sepharose beads after 1 hr by coomassie staining-based chemoproteomic competition binding assay

Row | Compound | inhibition [1] | inhibition [2] | inhibition [3] | solubility ([4]; read-out: solubility) [µM] | Papp [5] [×10⁻⁶ cm/s] | IC50 [6] [nM] | IC50 [7] [nM] | IC50 [8] [nM] | IC50 [9] [nM] | further results
1 | CC(=O)N1c2ccc(NC(=O)CCCCCCC(=O)O)cc2[C@H](NC(=O)OC(C)C)C[C@@H]1C | Active | Active | Active | – | – | – | – | – | – | –
2 | CC(=O)N1c2ccc(-c3ccccc3)cc2[C@H](NC(=O)CCCCCCC(=O)NO)C[C@@H]1C | Active | Active | Active | > 442 | 0.8 | 360 | 50 | 1290 | 930 | –
3 | CNCc1ccc(-c2ccc3c(c2)[C@H](NC(=O)OC(C)C)C[C@H](C)N3C(C)=O)cc1 | Active | Active | Active | 357 (≈ 146 µg/mL) | 17.4 | 280 | > 100000 | – | > 100000 | IC50 [10]: 5 nM; IC50 [11]: 1 nM; IC50 [12]: 306 nM; IC50 [13]: 381 nM; IC50 [14]: 191 nM
4 | CC(=O)N1c2ccc(NC(=O)CCCCCCC(=O)NO)cc2[C@H](NC(=O)OC(C)C)C[C@@H]1C | – | – | – | > 182 | < 0.3 | 290 | 250 | 1740 | 61700 | –
5 | O=C(CCCCCCC(=O)Nc1ccccc1)NO [VORINOSTAT] | – | – | – | – | 1.5 | > 50000 | – | – | – | solubility [4]: 307 µM (≈ 81.1 µg/mL)
6 | CC(=O)N1c2ccc(-c3ccc(NC(=O)CCCCCCC(=O)NO)cc3)cc2[C@H](NC(=O)OC(C)C)C[C@@H]1C | Active | Active | Active | 154 (≈ 85.1 µg/mL) | < 0.3 | 50 | 250 | 420 | 34900 | Kd [15]: 57 nM; Kd [16]: 53 nM; Kd [17]: 32 nM; Kd [18]: 70 nM; Kd [19]: 112 nM; IC50 [10]: 219 nM; IC50 [11]: 50 nM; IC50 [12]: 832 nM; IC50 [13]: 764 nM; IC50 [14]: 334 nM; inhibition [20]: Active; Kd [21]: 331 nM; Kd [22]: 955 nM; Kd [23]: 424 nM; Kd [24]: 236 nM; Kd [25]: 328 nM; Kd [26]: 207 nM
7 | CC(=O)N1c2ccc(NC(=O)CCCCCCC(=O)NO)cc2[C@H](Nc2ccccc2)C[C@@H]1C | – | – | – | 31 (≈ 14.5 µg/mL) | 3.1 | 100 | 900 | 980 | 37700 | –
